Source: PMC3913620, “Preclinical Evaluation of the Novel, Orally Bioavailable Selective Inhibitor of Nuclear Export (SINE) KPT-335 in Spontaneous Canine Cancer: Results of a Phase I Study” (PLoS ONE, 2014)
Where two headings read alike, the source gives them in different places.

Assays:
[1] = system: Jurkat cells; assay: MTS cell viability assay, Jurkat; assay type: cell-based, human; settings: 72 hours, read-out: IC50 (± S.D.), Jurkat
Procedure: Cryopreserved tumor cells obtained from sterile lymph node biopsy samples from dogs with diffuse large B cell lymphoma (DLBCL) were cultured with 100 ng/mL of megaCD40L (Enzo Life Science, Plymouth Meeting, PA) as previously described, [27]. The human T-cell leukemia cell line, Jurkat, was from the American Type Culture Collection (ATCC, Manassas, VA) and cultured in RPMI1640 medium (Gibco/BRL, Grand Island, NY) containing 10% fetal bovine serum (FBS; Atlas Biologicals, Fort Collins, CO), 2-mercaptoethanol (Gibco/BRL), HEPES, L-glutamine, sodium pyruvate (Mediatech Inc., Manassas, VA), non-essential amino acids (Sigma Aldrich, St. Louis, MO), and Primocin (Invivogen, San Diego, CA). The canine DLBCL cell line CLBL1 obtained from Dr. Barbara Rütgen (University of Vienna, Austria), [29] and human DLBCL cell lines OCI-Ly3 [30], [31] and OCI-Ly10 [32] obtained from Dr. Anne Novak (Mayo Clinic Cancer Center, Rochester, MN) were cultured in complete Iscove’s Modified Dulbecco’s medium (IMDM) containing 20% FBS, L-glutamine, and Primocin. All cells were maintained at 37°C in a humidified 5% CO2 atmosphere. The following additional canine tumor cell lines were used to evaluate response to SINE compounds: C2, mast cell tumor line provided by Dr. George Caughey, UCSF, San Francisco, CA [33]; OSA16, osteosarcoma cell line, provided by Dr. Jaime Modiano, UM, Minneapolis, MN [34]; and 323610-3, malignant melanoma cell line, provided by Dr. Michael Kent, UCD, Davis, CA [35]. […]
(§1) Cell viability for lymphoid lines was determined by the MTS (3-(4, 5-dimethylthiazol-2-yl)-5-(3-carboxymethoxyphenyl)-2-(4-sulfophenyl)-2H-tetrazolium) assay using CellTiter 96® AQueous One Solution Cell Proliferation Assay Kit (Promega, Madison, WI). […] After 72 hours, 20 µL of MTS solution was added to each well and cells were incubated for another 4 hours before measuring absorbance at 490 nm using a Wallac Victor 1420 Multilabel Counter (Perkin Elmer, Waltham, MA). The IC50 of SINE was calculated using Prism 6 software (GraphPad Software, Inc., La Jolla, CA).

[2] = system: primary canine DLBCL cells; assay: MTS cell viability assay, primary canine DLBCL samples; assay type: cell-based
Procedure: Cryopreserved tumor cells obtained from sterile lymph node biopsy samples from dogs with diffuse large B cell lymphoma (DLBCL) were cultured with 100 ng/mL of megaCD40L (Enzo Life Science, Plymouth Meeting, PA) as previously described, [27]. The human T-cell leukemia cell line, Jurkat, was from the American Type Culture Collection (ATCC, Manassas, VA) and cultured in RPMI1640 medium (Gibco/BRL, Grand Island, NY) containing 10% fetal bovine serum (FBS; Atlas Biologicals, Fort Collins, CO), 2-mercaptoethanol (Gibco/BRL), HEPES, L-glutamine, sodium pyruvate (Mediatech Inc., Manassas, VA), non-essential amino acids (Sigma Aldrich, St. Louis, MO), and Primocin (Invivogen, San Diego, CA). The canine DLBCL cell line CLBL1 obtained from Dr. Barbara Rütgen (University of Vienna, Austria), [29] and human DLBCL cell lines OCI-Ly3 [30], [31] and OCI-Ly10 [32] obtained from Dr. Anne Novak (Mayo Clinic Cancer Center, Rochester, MN) were cultured in complete Iscove’s Modified Dulbecco’s medium (IMDM) containing 20% FBS, L-glutamine, and Primocin. All cells were maintained at 37°C in a humidified 5% CO2 atmosphere. The following additional canine tumor cell lines were used to evaluate response to SINE compounds: C2, mast cell tumor line provided by Dr. George Caughey, UCSF, San Francisco, CA [33]; OSA16, osteosarcoma cell line, provided by Dr. Jaime Modiano, UM, Minneapolis, MN [34]; and 323610-3, malignant melanoma cell line, provided by Dr. Michael Kent, UCD, Davis, CA [35]. All cell lines were cultured in complete RPMI media containing 10% FBS, antibiotic/antimycotic, HEPES, sodium pyruvate, nonessential amino acids and Glutamax (media supplements from Gibco).
Cell viability for lymphoid lines was determined by the MTS (3-(4, 5-dimethylthiazol-2-yl)-5-(3-carboxymethoxyphenyl)-2-(4-sulfophenyl)-2H-tetrazolium) assay using CellTiter 96® AQueous One Solution Cell Proliferation Assay Kit (Promega, Madison, WI). Briefly, for lymphoid cell lines, 5×10^4 cells (or 1×10^5 primary DLBCL cells) were cultured in 100 µL of complete medium in 96-well plates in the presence of SINE compounds. After 72 hours, 20 µL of MTS solution was added to each well and cells were incubated for another 4 hours before measuring absorbance at 490 nm using a Wallac Victor 1420 Multilabel Counter (Perkin Elmer, Waltham, MA). The IC50 of SINE was calculated using Prism 6 software (GraphPad Software, Inc., La Jolla, CA).

[3] = system: XPO1; assay: XPO1 inhibition activity; assay type: biochemical
[4] = system: OCI-Ly3 DLBCL cells; assay: MTS cell viability assay, OCI-Ly3; assay type: cell-based, human; settings: 72 hours, read-out: IC50 (± S.D.), OCI-Ly3
Procedure: (§2) Cryopreserved tumor cells obtained from sterile lymph node biopsy samples from dogs with diffuse large B cell lymphoma (DLBCL) were cultured with 100 ng/mL of megaCD40L (Enzo Life Science, Plymouth Meeting, PA) as previously described, [27]. The human T-cell leukemia cell line, Jurkat, was from the American Type Culture Collection (ATCC, Manassas, VA) and cultured in RPMI1640 medium (Gibco/BRL, Grand Island, NY) containing 10% fetal bovine serum (FBS; Atlas Biologicals, Fort Collins, CO), 2-mercaptoethanol (Gibco/BRL), HEPES, L-glutamine, sodium pyruvate (Mediatech Inc., Manassas, VA), non-essential amino acids (Sigma Aldrich, St. Louis, MO), and Primocin (Invivogen, San Diego, CA). […]
as §1

[5] = system: OCI-Ly10 DLBCL cells; assay: MTS cell viability assay, OCI-Ly10; assay type: cell-based, human; settings: 72 hours, read-out: IC50 (± S.D.), OCI-Ly10
Procedure: as §2, §1

[6] = Oral bioavailability; assay type: in vivo; settings: in vivo, po
[7] = primary sample #5, 72 hours, read-out: IC50, DLBCL#5

| IC50 [4] [nM] | IC50 [5] [nM] | oral bioavailability [6] | Compound | IC50 [1] [nM] | IC50 [2, 7] [nM] | XPO1 inhibition activity, fold less than the cis-isomer [3] [fold] | IC50 ([2]; mean of primary canine DLBCL samples (n = 6), 72 hours, read-out: IC50 (± S.D.), Canine DLBCLs) [nM] | IC50 ([2]; primary sample #1, 72 hours, read-out: IC50, DLBCL#1) [nM] | IC50 ([2]; primary sample #2, 72 hours, read-out: IC50, DLBCL#2) [nM] | IC50 ([2]; primary sample #3, 72 hours, read-out: IC50, DLBCL#3) [nM] | IC50 ([2]; primary sample #4, 72 hours, read-out: IC50, DLBCL#4) [nM] |
| --- | --- | --- | --- | --- | --- | --- | --- | --- | --- | --- | --- |
| – | – | – | COc1cc(-c2ncn(/C=C/C(=O)OC(C)C)n2)cc(C(F)(F)F)c1 [KPT-185 trans] | > 1000 | > 1000 | ~100 | – | – | – | – | – |
| 24.1 | 246 | limited oral bioavailability | COc1cc(-c2ncn(/C=C\C(=O)OC(C)C)n2)cc(C(F)(F)F)c1 [KPT-185] | 8.7 ± 0.7 | 21.6 | – | 13.3 ± 6.2 | 13.1 | 9 | 12.2 | 4.9 |
